Reference: ChEMBL document CHEMBL4706683 (J Med Chem, 2021)
Calls of active or inactive are those of the source. No cut-off for these calls is given here.

Legend:
[1] = AUC (0 to t) in Balb/c mouse at 10 mg/kg, po administered as single dose measured upto 24 hrs by LC-MS/MS analysis; type: ADME, organism-based; set-up: route oral, dose 10 mg/kg, time <=24; details: in vivo
[2] = Oral bioavailability in Balb/c mouse at 10 mg/kg administered as single dose measured upto 24 hrs by LC-MS/MS analysis; type: ADME, organism-based; details: in vivo
Plasmodium falciparum [3] = assay: Antiplasmodial activity against artemisinin-resistant ring stage Plasmodium falciparum 6320 infected in human erythrocytes assessed as reduction in parasite growth incubated for 72 hrs by Giemsa staining based light microscopic method; type: functional, organism-based; details: Plasmodium falciparum, 6320, Erythrocyte
Plasmodium falciparum [4] = assay: Antimalarial activity against synchronized schizont stage transgenic Plasmodium falciparum 3D7 with C-terminal glmS-fused HDAC1 knockdown assessed as parasite growth inhibition pretreated with glucosamine followed by compound treatment and incubated for 4 hrs followed by compound washout for thrice and subsequent culturing for 68 hrs by SYBR Green 1 staining based analysis; type: functional, organism-based
[5] = Cmax in Balb/c mouse at 5 mg/kg, ip administered as single dose measured upto 24 hrs by LC-MS/MS analysis; type: ADME, organism-based; set-up: route intraperitoneal, dose 5 mg/kg, time <=24; details: in vivo
[6] = Half life in Balb/c mouse at 10 mg/kg, po administered as single dose measured upto 24 hrs by LC-MS/MS analysis; type: ADME, organism-based; details: in vivo
HEK-293T = assay: Cytotoxicity against human HEK293T cells assessed as reduction in cell viability incubated for 72 hrs by cell titer glo assay; type: cell-based
[7] = Apparent volume of distribution during terminal phase in Balb/c mouse at 2 mg/kg, iv administered as single dose measured upto 24 hrs by LC-MS/MS analysis; type: ADME, organism-based; details: in vivo
Plasmodium falciparum [8] = assay: Antiplasmodial activity against synchronized ring stage Plasmodium falciparum Dd2 infected in human erythrocytes assessed as reduction in parasite growth incubated for 72 hrs by Giemsa staining based light microscopic method; type: functional, organism-based; details: Dd2, Erythrocyte
[9] = Apparent volume of distribution during terminal phase in Balb/c mouse at 5 mg/kg, ip administered as single dose measured upto 24 hrs by LC-MS/MS analysis; type: ADME, organism-based; details: in vivo, 5 mg/kg, 24 h
[10] = molecular target: T1, Protein deacetylase HDAC6 (Homo sapiens, UniProt Q9UBN7); assay: Inhibition of human HDAC6 using Ac-peptide as substrate preincubated for 15 mins followed by substrate and trypsin addition and further incubated for 60 mins
T1 sequence (Q9UBN7 whole entry): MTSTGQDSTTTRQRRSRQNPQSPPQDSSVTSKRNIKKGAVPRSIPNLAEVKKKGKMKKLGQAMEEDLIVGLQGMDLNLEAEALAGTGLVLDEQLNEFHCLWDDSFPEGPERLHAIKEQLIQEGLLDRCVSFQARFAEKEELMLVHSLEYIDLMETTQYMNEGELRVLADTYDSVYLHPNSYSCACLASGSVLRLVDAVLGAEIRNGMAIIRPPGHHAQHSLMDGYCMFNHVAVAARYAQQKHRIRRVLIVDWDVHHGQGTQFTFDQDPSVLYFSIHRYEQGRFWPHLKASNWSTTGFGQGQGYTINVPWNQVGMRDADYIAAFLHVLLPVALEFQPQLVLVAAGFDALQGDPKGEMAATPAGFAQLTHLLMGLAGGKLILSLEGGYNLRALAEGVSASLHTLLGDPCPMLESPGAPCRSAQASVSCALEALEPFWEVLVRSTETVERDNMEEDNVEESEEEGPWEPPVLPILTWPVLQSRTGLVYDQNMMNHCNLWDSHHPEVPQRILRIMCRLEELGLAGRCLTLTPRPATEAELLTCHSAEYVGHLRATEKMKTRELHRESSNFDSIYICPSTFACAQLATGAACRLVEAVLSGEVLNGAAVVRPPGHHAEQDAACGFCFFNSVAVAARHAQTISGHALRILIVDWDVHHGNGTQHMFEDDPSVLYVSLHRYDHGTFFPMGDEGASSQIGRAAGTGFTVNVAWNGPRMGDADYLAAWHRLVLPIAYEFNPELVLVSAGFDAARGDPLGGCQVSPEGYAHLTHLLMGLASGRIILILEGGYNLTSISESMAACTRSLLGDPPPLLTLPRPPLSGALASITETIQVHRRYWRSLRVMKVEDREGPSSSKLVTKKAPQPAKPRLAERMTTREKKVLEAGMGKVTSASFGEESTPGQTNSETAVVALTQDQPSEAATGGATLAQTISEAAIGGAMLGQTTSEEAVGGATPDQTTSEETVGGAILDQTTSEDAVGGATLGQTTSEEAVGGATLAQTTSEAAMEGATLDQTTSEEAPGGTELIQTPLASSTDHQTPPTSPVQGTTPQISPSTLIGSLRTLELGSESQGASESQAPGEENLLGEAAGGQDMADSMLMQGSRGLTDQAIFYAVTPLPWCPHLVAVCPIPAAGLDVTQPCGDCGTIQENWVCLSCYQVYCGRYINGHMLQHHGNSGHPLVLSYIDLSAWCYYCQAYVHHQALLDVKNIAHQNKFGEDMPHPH

Plasmodium falciparum [11] = assay: Antiplasmodial activity against artemisinin-resistant Plasmodium falciparum 6320 assessed as reduction in parasite survival at 700 nM incubated for 6 hrs followed by compound washout thrice and further cultured in compound free medium for 66 hrs by RSA; type: functional, organism-based
[12] = molecular target: Histone deacetylase 3/Nuclear receptor corepressor 2 (HDAC3/NCoR2) (Homo sapiens, UniProt O15379); assay: Inhibition of human C-terminal His-tagged HDAC3/N-terminal GST-tagged NCOR2 expressed in baculovirus infected Sf9 cells using Ac-peptide as substrate preincubated for 15 mins followed by substrate and trypsin addition and further incubated for 60 mins
[13] = AUC (0 to t) in Balb/c mouse at 2 mg/kg, iv administered as single dose measured upto 24 hrs by LC-MS/MS analysis; type: ADME, organism-based; set-up: route intravenous, dose 2 mg/kg, time <=24; details: in vivo
[14] = Selectivity index, ratio of IC50 for cytotoxicity against human HEK293T cells assessed to IC50 for antiplasmodial activity against synchronized ring stage Plasmodium falciparum 3D7 infected in human erythrocytes; type: toxicity, cell-based; details: read-out: Ratio IC50
[15] = Tmax in Balb/c mouse at 10 mg/kg, po administered as single dose measured upto 24 hrs by LC-MS/MS analysis; type: ADME, organism-based; details: in vivo
[16] = Half life in Balb/c mouse at 5 mg/kg, ip administered as single dose measured upto 24 hrs by LC-MS/MS analysis; type: ADME, organism-based; details: in vivo
[17] = Toxicity in Balb/c mouse infected with sporozoites liver stage Plasmodium berghei assessed as animal death at 30 mg/kg, ip administered as single dose and measured upto 96 hrs; type: organism-based; details: in vivo
Plasmodium yoelii [18] = assay: Antiplasmodial activity against blood stage Plasmodium yoelii infected in Balb/c mouse assessed as reduction in parasitemia at 60 mg/kg, ip QD for 5 consecutive days and measured on day 30 by microscopic analysis; type: functional, organism-based; details: time 5.0 day
Plasmodium yoelii [19] = assay: Antiplasmodial activity against blood stage Plasmodium yoelii infected in Balb/c mouse assessed as reduction in parasitemia at 10 to 30 mg/kg, ip QD for 5 consecutive days and measured on day 20 by microscopic analysis; type: functional, organism-based; details: dose 10-30 mg/kg, time 5.0 day
[20] = Tmax in Balb/c mouse at 5 mg/kg, ip administered as single dose measured upto 24 hrs by LC-MS/MS analysis; type: ADME, organism-based; details: in vivo
[21] = AUC (0 to infinity) in Balb/c mouse at 5 mg/kg, ip administered as single dose measured upto 24 hrs by LC-MS/MS analysis; type: ADME, organism-based; set-up: route intraperitoneal, dose 5 mg/kg, time <=24; details: in vivo

Histone deacetylase 3/Nuclear receptor corepressor 2 (HDAC3/NCoR2), sequence (O15379 whole entry): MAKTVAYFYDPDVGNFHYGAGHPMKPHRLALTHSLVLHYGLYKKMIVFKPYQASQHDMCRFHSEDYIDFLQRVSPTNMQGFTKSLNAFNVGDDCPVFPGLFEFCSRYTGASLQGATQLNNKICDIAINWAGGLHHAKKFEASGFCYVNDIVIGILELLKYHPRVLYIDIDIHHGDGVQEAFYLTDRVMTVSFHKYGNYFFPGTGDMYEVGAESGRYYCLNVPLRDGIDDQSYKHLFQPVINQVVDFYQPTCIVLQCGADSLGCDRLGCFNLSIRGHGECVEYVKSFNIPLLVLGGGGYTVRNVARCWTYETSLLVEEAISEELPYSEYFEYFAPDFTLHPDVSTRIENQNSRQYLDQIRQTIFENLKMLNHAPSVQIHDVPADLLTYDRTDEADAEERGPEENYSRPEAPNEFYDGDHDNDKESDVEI
Histone deacetylase 3/Nuclear receptor corepressor 2 (HDAC3/NCoR2), sequence (Q9Y618 whole entry, further chain): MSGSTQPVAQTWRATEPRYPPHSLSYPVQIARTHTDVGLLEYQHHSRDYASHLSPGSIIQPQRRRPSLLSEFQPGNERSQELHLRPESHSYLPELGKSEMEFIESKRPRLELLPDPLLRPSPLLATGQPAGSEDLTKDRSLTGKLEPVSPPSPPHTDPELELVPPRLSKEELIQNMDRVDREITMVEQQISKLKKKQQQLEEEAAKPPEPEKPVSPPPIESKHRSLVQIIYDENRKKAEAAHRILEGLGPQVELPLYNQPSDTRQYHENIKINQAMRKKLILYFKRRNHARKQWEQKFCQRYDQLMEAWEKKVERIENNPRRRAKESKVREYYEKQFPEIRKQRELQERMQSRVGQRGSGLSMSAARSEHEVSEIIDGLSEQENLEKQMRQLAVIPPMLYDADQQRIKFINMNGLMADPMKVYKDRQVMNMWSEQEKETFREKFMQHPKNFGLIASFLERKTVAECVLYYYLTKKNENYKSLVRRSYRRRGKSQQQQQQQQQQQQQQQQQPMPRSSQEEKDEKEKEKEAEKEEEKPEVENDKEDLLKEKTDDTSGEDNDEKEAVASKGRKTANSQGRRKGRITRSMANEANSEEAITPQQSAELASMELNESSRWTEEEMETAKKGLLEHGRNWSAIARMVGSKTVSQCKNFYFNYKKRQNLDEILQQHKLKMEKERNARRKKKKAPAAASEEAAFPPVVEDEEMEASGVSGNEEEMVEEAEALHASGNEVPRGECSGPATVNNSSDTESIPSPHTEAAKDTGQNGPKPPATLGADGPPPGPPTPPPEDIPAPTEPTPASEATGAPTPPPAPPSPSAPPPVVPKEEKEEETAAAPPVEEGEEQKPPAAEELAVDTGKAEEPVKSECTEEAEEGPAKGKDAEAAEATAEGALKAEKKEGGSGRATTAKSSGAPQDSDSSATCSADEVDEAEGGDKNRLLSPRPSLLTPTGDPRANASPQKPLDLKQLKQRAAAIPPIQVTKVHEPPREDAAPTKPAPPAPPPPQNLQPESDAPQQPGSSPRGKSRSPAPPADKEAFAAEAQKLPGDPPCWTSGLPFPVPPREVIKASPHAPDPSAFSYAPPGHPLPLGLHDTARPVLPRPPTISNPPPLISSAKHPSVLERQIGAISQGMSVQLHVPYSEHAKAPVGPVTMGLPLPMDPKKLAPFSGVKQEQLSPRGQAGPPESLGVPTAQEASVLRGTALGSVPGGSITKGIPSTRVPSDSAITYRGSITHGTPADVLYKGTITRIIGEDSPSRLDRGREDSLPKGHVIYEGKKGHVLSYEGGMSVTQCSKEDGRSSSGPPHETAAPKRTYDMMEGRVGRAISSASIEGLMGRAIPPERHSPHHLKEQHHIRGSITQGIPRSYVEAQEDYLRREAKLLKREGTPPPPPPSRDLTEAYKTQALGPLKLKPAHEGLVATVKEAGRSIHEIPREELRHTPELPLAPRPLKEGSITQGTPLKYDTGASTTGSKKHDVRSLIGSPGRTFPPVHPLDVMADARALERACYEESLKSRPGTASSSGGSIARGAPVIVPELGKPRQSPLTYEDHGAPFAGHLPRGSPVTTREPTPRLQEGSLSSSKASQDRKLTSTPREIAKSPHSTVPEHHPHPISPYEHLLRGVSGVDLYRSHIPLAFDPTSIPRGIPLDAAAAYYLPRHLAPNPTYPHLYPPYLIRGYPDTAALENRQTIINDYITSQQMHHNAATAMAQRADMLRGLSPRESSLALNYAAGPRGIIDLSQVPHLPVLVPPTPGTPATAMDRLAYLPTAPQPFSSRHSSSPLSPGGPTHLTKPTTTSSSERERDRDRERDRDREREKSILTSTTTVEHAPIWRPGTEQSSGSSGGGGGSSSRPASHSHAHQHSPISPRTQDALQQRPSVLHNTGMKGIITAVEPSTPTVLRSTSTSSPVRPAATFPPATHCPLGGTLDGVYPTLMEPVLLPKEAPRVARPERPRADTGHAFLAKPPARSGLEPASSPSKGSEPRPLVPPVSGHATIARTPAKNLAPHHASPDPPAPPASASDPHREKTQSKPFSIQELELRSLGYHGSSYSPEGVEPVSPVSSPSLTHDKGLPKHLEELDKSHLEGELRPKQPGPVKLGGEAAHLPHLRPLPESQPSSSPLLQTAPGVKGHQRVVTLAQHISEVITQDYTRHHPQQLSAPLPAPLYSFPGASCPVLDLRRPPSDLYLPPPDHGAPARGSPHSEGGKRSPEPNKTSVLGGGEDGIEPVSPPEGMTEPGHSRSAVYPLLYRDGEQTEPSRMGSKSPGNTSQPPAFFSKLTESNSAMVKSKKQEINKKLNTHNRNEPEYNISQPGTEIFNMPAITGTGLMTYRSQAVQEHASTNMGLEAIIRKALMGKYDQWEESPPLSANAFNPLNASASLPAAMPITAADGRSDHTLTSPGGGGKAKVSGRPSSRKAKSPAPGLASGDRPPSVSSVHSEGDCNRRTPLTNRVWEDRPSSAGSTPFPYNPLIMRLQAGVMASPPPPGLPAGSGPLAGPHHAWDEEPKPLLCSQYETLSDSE

`Cl.O=C(NO)c1cnc(N2CCC3(CCN(Cc4c[nH]c5ccccc45)C3)CC2)nc1` gave an AUC(0-t) at 24 h [1] of 2.94 ng·h/mL, a bioavailability [2] of 0.5% and an IC50 (Plasmodium falciparum [3]) of 2.9 nM. For the same compound, the IC50 (Plasmodium falciparum [4]) was 4.3 nM, the Cmax [5] was 108 ng/mL and the half-life [6] was 104 min. For the same compound, the IC50 (HEK-293T) was 241 nM, the Vz/F [7] was 10.3 L/kg and the IC50 (Plasmodium falciparum [8]) was 1.9 nM. For the same compound, the Vz/F [9] was 60.4 L/kg, the IC50 [10] was 32 nM and the Activity (Plasmodium falciparum [11]) was “Active”. It also gave an IC50 [12] of 3 nM, an AUC(0-t) at 24 h [13] of 117 ng·h/mL and a selectivity ratio [14] of 75. For the same compound, the Tmax [15] was 15 min, the t1/2 [16] was 26.4 min and the Activity [17] was “Non-Toxic”. The Activity (Plasmodium yoelii [18]) was “Active”, the Activity (Plasmodium yoelii [19]) was “inactive” and the Tmax [20] was 15 min. For the same compound, the AUC(0-inf) [21] was 95.1 ng·h/mL.
